Test results taken from US20190364890A1, “SYNERGISTIC COMBINATION OF ORTHO-PHENYLPHENOL AND BIS-(3-AMINOPROPYL)DODECYLAMINE” (Dow Global Technologies LLC, priority 2016, published 2019).

What was measured:
Test in all cases: Minimum Inhibitory Concentration (MIC) test / synergy testing
Format in all cases: cell-based
[1] = system: Staphylococcus aureus DSM# 799; conditions: single biocide, TSB medium pH 5, 30° C., 48 hours
Method: (§1) The synergism of the biocides combination of the present invention was determined using the Minimum Inhibitory (MIC) test method described by Kull, F. C., et. al in Applied Microbiology 9:538-541 (1961).
(§2) The Minimum Inhibitory Concentration Test (MIC) is designed to evaluate the lowest concentration of a biocide, biocide blend or biocide combination to prevent bacteria growing in a defined broth.
(§3) The MICs of the single biocides NaOPP and BDA as well as of combinations of these two actives (all in TSB) in 3 different ratios (1:1; 10:1, 100:1) were estimated against each of the 4 microorganisms Staphylococcus aureus (DSMZ#799), Pseudomonas aeruginosa (DSMZ#939) and Candida albicans (DSMZ#1386), Pseudomonas putida, respectively.
(§4) The synergy testing was carried out as follows: • 1. The test was executed with a Hamilton MLStarPlus robot using automated turbidity reading with BioTek Synergy H4 plate reader. • 2. Biocide systems were prepared in 2.2 ml deep well plates by transferring and diluting biocides from stock solutions to first rows of the plates. The concentrations of biocides in stock bottles were adjusted to be 20× more concentrated than the highest desired concentration. • 3. Then 15 subsequent serial dilutions with dilution factor 1.3 were performed resulting in 16 different concentrations for each system. • 4. In the next step serially diluted biocide systems were transferred to the media blocks containing 850 μl of TSB medium adjusted to pH 5. For each biocide system 100 μl was transferred to the media, resulting in 950 μl of final volume of media+biocides and 9.5 times dilution of the biocides from the biocide plate. At this point, the concentrations of all biocides in media were 1.053×final concentration. • 5. After preparation and mixing of the described systems, 4 aliquots of 190 μl were prepared in 96-well microtiter plates. • 6. Preparation of the microbe suspension:
(§5) • The culture was maintained as a glycerol stock at −80° C. in cryovials. A cryovial was thawed and then 100 μl spread on a TSA agar plate. After incubation for 1 day at 30° C. the bacteria were harvested with buffer at pH 7.3. A total viable count on TSA plate was carried out and bacterial suspension was diluted in buffer in order to deliver ˜2×10^7 CFU/ml.
(§6) • The cultures were maintained as glycerol stocks at −80° C. in cryovials, are thawed and then 100 μl spread on MEA (malt extract agar) petri dishes. • The yeast strain plates were incubated at 28° C. for 1-2 days then harvested with buffer pH 5.0. • Based on total viable count results, the inoculum was prepared. • 7. Each test sample (190 μl) was inoculated with the 10 μl of microbe suspension to provide a level of ˜1×10^6 CFU/ml of the bacteria species and ˜1×10^5 CFU/ml of the yeast species. • 8. The test samples were mixed and incubated at 30° C. for 2 days (48 hours) when tested against bacteria and 3 days (72 hours), respectively, when tested against yeast. • 9. Growth of the micro-organisms leads to turbidity after incubation, clarity indicates no growth. Reading of the results was carried out by measuring absorbance at 600 nm for each sample at the beginning of the test (tzero) and after incubation (tendpoint). tendpoint was chosen at 48 hours for bacteria and 72 hours for yeast. The difference in absorbance between tendpoint and tzero was used to assign a score (“1” if Δ>0.2, confirming growth, and “0” if Δ≤0.2, confirming no growth) from which the MIC values were derived.

[2] = system: Pseudomonas aeruginosa DSM# 939; conditions: single biocide, TSB medium pH 5, 30° C., 48 hours
Method: as §1, §2, §3, §4, §5, §6

Pseudomonas putida = conditions: single biocide, TSB medium pH 5, 30° C., 48 hours
Method: as §1, §2, §3, §4, §5, §6

[3] = system: Candida albicans DSM# 1386; conditions: single biocide, TSB medium pH 5, 30° C., 72 hours
Method: as §1
The Minimum Inhibitory Concentration Test (MIC) is designed to evaluate the lowest concentration of a biocide, biocide blend or biocide combination to prevent bacteria growing in a defined broth. […]
The synergy testing was carried out as follows: • 1. The test was executed with a Hamilton MLStarPlus robot using automated turbidity reading with BioTek Synergy H4 plate reader. • 2. […]
• The cultures were maintained as glycerol stocks at −80° C. in cryovials, are thawed and then 100 μl spread on MEA (malt extract agar) petri dishes. • The yeast strain plates were incubated at 28° C. for 1-2 days then harvested with buffer pH 5.0. • Based on total viable count results, the inoculum was prepared. • 7. […] Reading of the results was carried out by measuring absorbance at 600 nm for each sample at the beginning of the test (tzero) and after incubation (tendpoint). tendpoint was chosen at 48 hours for bacteria and 72 hours for yeast. The difference in absorbance between tendpoint and tzero was used to assign a score (“1” if Δ>0.2, confirming growth, and “0” if Δ≤0.2, confirming no growth) from which the MIC values were derived.

Row | Compound | MIC ([1]; Staphylococcus aureus, DSM799, read-out: MIC results for single biocides) [µg/mL] | MIC ([2]; Pseudomonas aeruginosa, DSM939, read-out: MIC results for single biocides) [µg/mL] | MIC (Pseudomonas putida; Pseudomonas putida, read-out: MIC results for single biocides) [µg/mL] | MIC ([3]; Candida albicans, DSM1386, read-out: MIC results for single biocides) [µg/mL] | MIC results for single biocides [1] [ppm] | MIC results for single biocides [2] [ppm] | MIC results for single biocides (Pseudomonas putida) [ppm] | MIC results for single biocides [3] [ppm]
1 | CCCCCCCCCCCCN(CCCN)CCCN [BDA, bis-(3-aminopropyl)dodecylamine] | 91 | 200 | 200 | ≥ 260 | – | – | – | –
2 | [Na+].[O-]c1ccccc1-c1ccccc1 [NAOPP, sodium ortho-phenylphenate] | – | – | – | – | 129 | 167 | 283 | 167
